The subject of assay [1] is Methicillin resistant Staphylococcus aureus (ATCC 33591). In kind it is cell-based. To be noted: for IC50 / MIC: ATCC 33591; for MRSA IC50: Table 4; for activity against MRSA (in words): gram-positive organism. The protocol: (§1) The antimicrobial compounds of the present invention were assayed using a standard microdilution assay against gram-positive bacteria Staphylococcus aureus (strain used: ATTC 29213) and methicillin-resistant strain used ATCC 33591) and the gram-negative bacteria Pseudomonas aeruginosa (strain used ATCC27853). The samples were assayed against 1-5×10^5 colony forming units, in Mueller-Hinton broth, at 37° C. The activity was determined following a 21 hour incubation. The IC50 values were calculated using sigmoidal curve fitting software. (Graphpad™, ISI Software, San Diego, Calif.) and correspond to the sample concentration which inhibits 50 percent of bacterial growth. The minimum inhibitory concenttration (MIC) is defined as the lowest concentration of sample at which no growth is detected by optical density between

Assay [2] relates to Pseudomonas aeruginosa (ATCC27853). It is filed as cell-based. To be noted: for activity against Pseudomonas aeruginosa (in words): gram negative organism; for Ps A. IC50: Table 4. The protocol: as §1

≈ marks a conversion by molar mass, not a printed value. Read-outs that look alike come from different tables or passages of the source. Square brackets hold non-standard residues; d marks the D form. 2Nal = N[C@@H](Cc1ccc2ccccc2c1)C(=O)O Where only a bound is given, the exact number is not on record here.

The results in this text go back to patent US6551998B1, “Antimicrobial agents” (University of Louisville Research Foundation, Inc., priority 1999, dated 2003).

In the case of `CC(C)C[C@H](NC[C@H](Cc1ccccc1)NC(=O)C(C)(C)NC(=O)[C@H](CCCCN)NC[C@@H](N)Cc1ccc2ccccc2c1)C(=O)O` [Compound 13, H-2-Nalψ[CH2NH]Lys-Aib-Pheψ[CH2NH]Leu-OH], in assay [1], the IC50 turned out to be 54 µg/mL (≈ 81.7 µM) and the MIC is 125 to 250 µg/mL. In assay [2] (ATCC27853, 21 h), this compound registered an IC50 of 59 µg/mL (≈ 89.3 µM) and an MIC of 80 to 125 µg/mL. For the same compound, the “activity against Pseudomonas aeruginosa (in words)” value in assay [2] was “good potency”.

Take “H-2-Nal-Lys-Ser-Phe-Leu-OH (H-[2Nal]KSFL-OH; SMILES CC(C)C[C@H](NC(=O)[C@H](Cc1ccccc1)NC(=O)[C@H](CO)NC(=O)[C@H](CCCCN)NC(=O)[C@@H](N)Cc1ccc2ccccc2c1)C(=O)O) [Compound 26]”: in assay [1], the MRSA IC50 came to 184 µg/mL and the “activity against MRSA (in words)” value was “modest activity in both assays”. Further, in assay [2], the Ps A. IC50 was found to be 388 µg/mL and the “activity against Pseudomonas aeruginosa (in words)” value is “modest activity in both assays”.

For “H-2-Nalψ[CH2NH]Nle-Aib-Pheψ[CH2NH]Leu-OH [Compound 32]”, the MRSA IC50 in assay [1] turned out to be 35 µg/mL. The Ps A. IC50 in assay [2] is over 500 µg/mL.

In assay [1], “H-D-2-Nalψ[CH2NH]D-Met-Aib-D-Pheψ[CH2NH]D-Leu-OH [Compound 35]” showed an MRSA IC50 of 42.1 µg/mL. The same compound came in with a Ps A. IC50 in assay [2] of 463 µg/mL.

For the compound `CCC(CC)(NC(=O)[C@H](CCCCN)NC[C@@H](N)Cc1ccc2ccccc2c1)C(=O)N[C@H](CN[C@@H](CC(C)C)C(=O)O)Cc1ccccc1` [Compound 19, H-2-Nalψ[CH2NH]Lys-Deg-Pheψ[CH2NH]Leu-OH], in assay [1], the 50% inhibitory concentration (IC50) was 67 µg/mL (≈ 97.2 µM) and the MIC is 125 to 250 µg/mL. Besides, in assay [2] (ATCC27853, 21 h), the IC50 stood at 143 µg/mL (≈ 208 µM) and the MIC lay in the range of 250 to 500 µg/mL.

Compound “4-AMBψ[CH2NH]Lys-Ser-Pheψ[CH2NH]Leu-OH [Compound 37]” registered an MRSA IC50 in assay [1] of over 500 µg/mL. The compound also came in with a Ps A. IC50 in assay [2] of 415 µg/mL.

“H-2-Nalψ[CH2NH]Met-Aib-Pheψ[CH2NH]Leu-NH2 [Compound 31]” returned an MRSA IC50 in assay [1] of 10.4 µg/mL. In assay [2], this compound came in with a Ps A. IC50 of 94 µg/mL.

“H-2-Nalψ[CH2NH]Met-4-AMB-Pheψ[CH2NH]Leu-OH [Compound 33]” showed an MRSA IC50 in assay [1] of 17.6 µg/mL. For the same compound, the “selectivity between MRSA and P. aeruginosa (in words)” value in assay [1] (comparison of the MRSA and Ps A. IC50 of Table 4) is “quite selective toward MRSA”. Further, in assay [2], the Ps A. IC50 came to 163 µg/mL.

In the case of `CC(C)C[C@H](NC[C@H](Cc1ccccc1)NC(=O)[C@H](CO)NC(=O)[C@H](CCCCN)NC[C@@H](N)Cc1ccc2ccccc2c1)C(=O)O` [Compound 1, H-2-Nal ψ[CH2NH]Lys-Ser-Pheψ[CH2NH]Leu-OH], in assay [1], the IC50 worked out at 3 µg/mL (≈ 4.53 µM), the MIC was in the range of 8 to 16 µg/mL and the “activity against MRSA (in words)” value was “most active”. The IC50 in assay [2] (Table 2, Mueller-Hinton broth, 37° C., 21 hour incubation, 50 percent inhibition of bacterial growth) is 10 µg/mL (≈ 15.1 µM). In assay [2] (Table 2, lowest concentration at which no growth is detected, 21 hour incubation), this compound came in with an MIC of 16 to 32 µg/mL.

In assay [1], `CC[C@H](C)[C@H](NC[C@@H](N)Cc1ccc2ccccc2c1)C(=O)NC(CC)(CC)C(=O)N[C@H](CN[C@@H](CC(C)C)C(=O)O)Cc1ccccc1` [Compound 21, H-2-Nalψ[CH2NH]Ile-Deg-Pheψ[CH2NH]Leu-OH] displayed an IC50 of 34 µg/mL (≈ 50.4 µM) and an MIC of 40 to 162 µg/mL.

In assay [1], `CSCC[C@H](NC[C@@H](N)Cc1ccc2ccccc2c1)C(=O)N[C@@H](Cc1ccccc1)C(=O)N[C@H](CN[C@@H](CC(C)C)C(=O)O)Cc1ccccc1` [Compound 6, H-2-Nalψ[CH2NH]Met-Phe-Pheψ[CH2NH]Leu-OH] showed an IC50 of 44 µg/mL (≈ 60.6 µM) and an MIC of 125 to 250 µg/mL.

Turning to “H-D-2-Nalψ[CH2NH]Lys-Ser-Pheψ[CH2NH]Leu-OH [Compound 22]”, in assay [1], the MRSA IC50 turned out to be 10.9 µg/mL and the “activity against MRSA (in words)” value is “active against both”. Moreover, in assay [2], the Ps A. IC50 stood at 9.2 µg/mL and the “activity against Pseudomonas aeruginosa (in words)” value is recorded as “active against both”.

In assay [1], `CC[C@H](C)[C@H](NC[C@@H](N)Cc1ccc2ccccc2c1)C(=O)NC(C)(C)C(=O)N[C@H](CN[C@@H](CC(C)C)C(=O)O)Cc1ccccc1` [Compound 15, H-2-Nalψ[CH2NH]Ile-Aib-Pheψ[CH2NH]Leu-OH] came in with an IC50 of 39 µg/mL (≈ 60.4 µM) and an MIC of 80 to 125 µg/mL.

“H-2-Nalψ[CH2NH]Lys-Ser-4-AMBψ[CH2NH]Leu-OH [Compound 36]”: in assay [1], the MRSA IC50 was found to be 37.5 µg/mL. In assay [2], this compound came in with a Ps A. IC50 of 32.2 µg/mL.

Take “Ac-2-Nalψ[CH2NH]Lys-Ser-Pheψ[CH2NH]Leu-OH [Compound 24]”: the MRSA IC50 in assay [1] was determined as 60 µg/mL. Besides, the Ps A. IC50 in assay [2] is 180 µg/mL.

As for `CSCCC(NCC(N)Cc1ccc2ccccc2c1)C(=O)NC(C)(C)C(=O)NC(CNC(CC(C)C)C(=O)O)Cc1ccccc1` (stereo not drawn) [Compound 14, H-2-Nalψ[CH2NH]Met-Aib-Pheψ[CH2NH]Leu-OH], in assay [1], the half-inhibitory concentration (IC50) amounted to 3 µg/mL (≈ 4.52 µM), the MIC fell in the range of 8 to 16 µg/mL and the “activity against MRSA (in words)” value is given as “also active”. In assay [2] (ATCC27853, 21 h), this compound had an IC50 of 20 µg/mL (≈ 30.1 µM) and an MIC of 31 to 62 µg/mL. Moreover, the “activity against Pseudomonas aeruginosa (in words)” value in assay [2] is recorded as “good potency”.

In assay [1], `CCC(CC)(NC(=O)[C@H](CCSC)NC[C@@H](N)Cc1ccc2ccccc2c1)C(=O)N[C@H](CN[C@@H](CC(C)C)C(=O)O)Cc1ccccc1` [Compound 20, H-Nalψ[CH2NH]Met-Deg-Pheψ[CH2NH]Leu-OH] came in with a half-inhibitory concentration (IC50) of 5 µg/mL (≈ 7.23 µM) and an MIC of 16 to 32 µg/mL. Moreover, in assay [2] (ATCC27853, 21 h), the IC50 amounted to 64 µg/mL (≈ 92.5 µM) and the MIC was 80 to 125 µg/mL. Also, the “activity against Pseudomonas aeruginosa (in words)” value in assay [2] is given as “good potency”.

Consider “H-2-Nalψ[CH2NH]Lys(Ac)-Ser-Pheψ[CH2NH]Leu-OH [Compound 28]”, for which, in assay [1], the MRSA IC50 worked out at 25.8 µg/mL. For the same compound, in assay [2], the Ps A. IC50 worked out at 190 µg/mL.

For the compound “H-2-Nalψ[CH2NH]Lys-Ser-Phe-Leu-OH (H-[2Nal]KSFL-OH; also: ψ[CH2NH] reduced bond between 2-Nal1 and Lys2) [Compound 27]”, the MRSA IC50 in assay [1] was 37.8 µg/mL. For the same compound, the Ps A. IC50 in assay [2] was found to be 65.4 µg/mL.

Take `CC[C@H](C)[C@H](NC[C@@H](N)Cc1ccc2ccccc2c1)C(=O)N[C@@H](CO)C(=O)N[C@H](CN[C@@H](CC(C)C)C(=O)O)Cc1ccccc1` [Compound 7, H-2-Nalψ[CH2NH]Ile-Ser-Pheψ[CH2NH]Leu-OH]: in assay [1], the IC50 was 69 µg/mL (≈ 107 µM) and the MIC is 125 to 250 µg/mL.

In assay [1], `CC[C@H](C)[C@H](NC[C@@H](N)Cc1ccc2ccccc2c1)C(=O)N[C@@H](Cc1ccccc1)C(=O)N[C@H](CN[C@@H](CC(C)C)C(=O)O)Cc1ccccc1` [Compound 9, H-Nalψ[CH2NH]Ile-Phe-Pheψ[CH2NH]Leu-OH] showed an IC50 of 9 µg/mL (≈ 12.7 µM) and an MIC of 16 to 32 µg/mL.

In assay [1], `CC[C@H](C)[C@H](NC[C@@H](N)Cc1ccc2ccccc2c1)C(=O)N[C@H](C(=O)N[C@H](CN[C@@H](CC(C)C)C(=O)O)Cc1ccccc1)C(C)C` [Compound 8, H-2-Nalψ[CH2NH]Ile-Val-Pheψ[CH2NH]Leu-OH] had an IC50 of 5 µg/mL (≈ 7.58 µM) and an MIC of 8 to 16 µg/mL.

With `CC(C)C[C@H](NC[C@H](Cc1ccccc1)NC(=O)[C@H](Cc1ccccc1)NC(=O)C(C)(C)NC[C@@H](N)Cc1ccc2ccccc2c1)C(=O)O` [Compound 12, H-2-Nalψ[CH2NH]Aib-Phe-Pheψ[CH2NH]Leu-OH], in assay [1], the IC50 amounted to 26 µg/mL (≈ 38.2 µM) and the MIC fell in the range of 125 to 250 µg/mL.

In assay [1], `CCC(CC)(NC[C@@H](N)Cc1ccc2ccccc2c1)C(=O)N[C@@H](Cc1ccccc1)C(=O)N[C@H](CN[C@@H](CC(C)C)C(=O)O)Cc1ccccc1` [Compound 18, H-2-Nalψ[CH2NH]Deg-Phe-Pheψ[CH2NH]Leu-OH] registered an IC50 of 6 µg/mL (≈ 8.48 µM) and an MIC of 16 to 32 µg/mL.
